From patent publication US20250145628A1, “PYRAZOLOPYRIMIDINES, COMPOSITIONS COMPRISING THEM AND USES THEREOF” (Novo Nordisk A/S, priority 2022, published 2025)

Columns and labels:
human CB1 receptor [1] = molecular target: T1, human CB1 receptor (Homo sapiens, UniProt P21554); assay: bioSensAll GAPL-Gi2 BRET biosensor assay (antagonism of CP-55,940); format: cell-based; conditions: HEK293 cells transfected with hCB1 and GAPL-Gi2 biosensor, EC75 of CP-55,940 (0.1 nM), overnight incubation, read-out: CB1 wt Gi2 IC50
T1 construct: expressed in transfected cells; host or cells: HEK293
Experimental: (§1) Using polyethylenimine (PEI) transfection agent, HEK293 cells were transfected in suspension with the human CB1 or CB1b receptor and one of the following bioSensAll® assays: GAPL-Gi2, or β-arrestin plasma membrane (PM) translocation biosensor (+GRK2). Cells were directly seeded in 96-well plates immediately following transfection.
(§2) Cells were incubated with coelenterazine (luciferase substrate) and different test compounds prior to the measurement of BRET signals.
i) GAPL sensors are used to monitor the activation of heterotrimeric G proteins at the plasma membrane upon receptor stimulation. Specifically, these multimolecular BRET sensors detect the plasma membrane recruitment of proteins that interact with active Ga subunits in a G protein family-selective manner. G protein activation following receptor stimulation generally leads to an increase in the BRET signal.
(§3) HEK293 cells were maintained in Dulbecco's Modified Eagle Medium (DMEM) (Wisent; cat #319-030-CL: without sodium pyruvate, with 4.5 g/L glucose, without L-glutamine) supplemented with 1% penicillin-streptomycin (Wisent; cat #450-201-EL) and 2 or 10% fetal bovine serum (Wisent cat #090150).
(§4) HEK293 cells were co-transfected with hCB1 or hCB1b and one of the above-listed bioSensAll® assays. For each transfection condition: • the total amount of transfected DNA was kept constant at 1 μg per mL of cell culture to be transfected; whenever necessary, salmon sperm DNA (Invitrogen, cat #15632011) was used as ‘carrier’ DNA to supplement plasmid DNA (i.e., biosensor and receptor); • the PEI (polyethylenimine 25 kDa linear, PolyScience, cat #23966) to DNA ratio (ug:ug) was fixed at 3:1.
(§5) Transfections were carried out as follows: • DNA and PEI were first diluted separately in 150 mM NaCl. The volume of the diluent in each tube corresponds to 5% of the cell culture volume to be transfected. • Once DNA and PEI were diluted, the PEI-containing solution was added to the DNA solution and the DNA/PEI mixture immediately vortexed for 5 seconds. • The DNA/PEI mixture was incubated for at least 20 minutes at room temperature to allow for the formation of DNA/PEI complexes. • During the incubation, HEK293 cells were detached, counted and re-suspended in culture medium (composition specified above). • At the end of the incubation period, the DNA/PEI mixture was added to the cells. • Cells were finally distributed in 96-well plates (White Opaque 96-well/Microplates, Greiner, cat #655083 or CulturPlate-96, White Opaque 96-well Microplate, PerkinElmer, cat #6005688) at a density of 30 000 cells per well.
(§6) At ˜48 hours post-transfection: • Using 450-Select TS Biotek plate washer, culture medium was aspirated and replaced with 100 μl of Hank's Balanced Salt Solution buffer (HBSS) (Wisent, cat #319-067CL: without red phenol; with sodium bicarbonate, with calcium and magnesium, with HEPES) per well. This process was performed a total of two times (i.e., 2 washes). • After the washing step, the HP D300 digital dispenser (Tecan) was used to inject increasing doses (12) of test compounds (ranging from 0-600 nM) to wells. Three to five minutes later, an EC75 of CP-55,940 (0.1 nM for GAPL-Gi2 assay; 100 nM for β-arrestin PM translocation biosensor (+GRK2)) was added to columns 2-12 of each 96-well plate.
(§7) BRET signals were determined by calculating the ratio of light emitted by GFP-acceptor (515 nm) over light emitted by luciferase-donor (400 nm). All BRET ratios were standardized using the equation below with pre-established BRET values for positive and negative controls. The standardized BRET ratio is referred to as universal BRET (uBRET).
(§8) Resulting dose-response curves were fitted using the four-parameter logistic non-linear regression model in GraphPad Prism 9.

human CB1 receptor [2] = molecular target: T1, human CB1 receptor; assay: bioSensAll β-arrestin plasma membrane translocation BRET biosensor (+GRK2) assay (antagonism of CP-55,940); format: cell-based; conditions: HEK293 cells transfected with hCB1 and β-arrestin PM translocation biosensor (+GRK2), EC75 of CP-55,940 (100 nM), overnight incubation, read-out: CB1 wt βarr2 IC50
Experimental: as §1, §2
ii) The multimolecular β-arrestin membrane recruitment biosensors allow for real-time spatio-temporal monitoring of β-arrestin 1 and β-arrestin 2 following GPCR activation. Specifically, these β-arrestin sensors were designed to detect the recruitment of proteins to the plasma membrane (β-arrestin PM) with localization to compartment resulting in an increased BRET signal.
as §3, §4, §5, §6, §7, §8

T1 sequence (P21554 whole entry): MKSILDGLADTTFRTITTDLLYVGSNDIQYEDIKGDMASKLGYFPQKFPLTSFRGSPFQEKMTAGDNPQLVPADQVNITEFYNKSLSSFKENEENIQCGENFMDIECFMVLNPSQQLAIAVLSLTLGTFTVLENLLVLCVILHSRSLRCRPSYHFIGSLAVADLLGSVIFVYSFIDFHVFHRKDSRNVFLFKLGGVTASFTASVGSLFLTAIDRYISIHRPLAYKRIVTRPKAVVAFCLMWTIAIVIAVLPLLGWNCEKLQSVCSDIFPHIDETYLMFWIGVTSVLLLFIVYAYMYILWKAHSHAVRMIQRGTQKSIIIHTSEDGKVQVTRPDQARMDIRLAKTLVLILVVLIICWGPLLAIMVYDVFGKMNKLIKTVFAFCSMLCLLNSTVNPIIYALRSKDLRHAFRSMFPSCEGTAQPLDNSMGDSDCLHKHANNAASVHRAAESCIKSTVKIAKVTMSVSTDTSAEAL

IC50 (human CB1 receptor [1]) | IC50 (human CB1 receptor [2]) | Structure (SMILES)
93 nM | 161 nM | CNC(=O)CCN(C)c1cc(N2CCC[C@@H](C(N)=O)C2)n2nc(-c3ccccc3Cl)c(-c3ccc(Cl)cc3)c2n1 [Compound 41, (3R)-1-[2-(2-chlorophenyl)-3-(4-chlorophenyl)-5-[methyl-[3-(methylamino)-3-oxo-propyl]amino]pyrazolo[1,5-a]pyrimidin-7-yl]piperidine-3-carboxamide]
0.481 nM | 1.33 nM | O=S1(=O)CCC(Nc2cc(N3CCC[C@H]3CO)nc3c(-c4ccc(Cl)cc4)c(-c4ccccc4Cl)nn23)CC1 [Compound 11, [(2S)-1-[2-(2-chlorophenyl)-3-(4-chlorophenyl)-7-[(1,1-dioxothian-4-yl)amino]pyrazolo[1,5-a]pyrimidin-5-yl]pyrrolidin-2-yl]methanol]
> 10000 nM | 155 nM | CN(CP(C)(C)=O)c1cc(N2CCC[C@@H](C(N)=O)C2)n2nc(-c3ccccc3Cl)c(-c3ccc(Cl)cc3)c2n1 [Compound 34, (3R)-1-[2-(2-chlorophenyl)-3-(4-chlorophenyl)-5-[dimethylphosphorylmethyl(methyl)amino]pyrazolo[1,5-a]pyrimidin-7-yl]piperidine-3-carboxamide]
1.28 nM | 4.69 nM | CC(=O)NC1(C)CCN(c2cc(N(C)CCC(N)=O)nc3c(-c4ccc(Cl)cc4)c(-c4ccccc4Cl)nn23)CC1 [Compound 27, 3-[[7-(4-acetamido-4-methyl-1-piperidyl)-2-(2-chlorophenyl)-3-(4-chlorophenyl)pyrazolo[1,5-a]pyrimidin-5-yl]-methyl-amino]propanamide]
4.04 nM | 10.6 nM | OC[C@@H]1CCCN1c1cc(-c2ccc(C(F)(F)F)cc2)n2nc(-c3ccccc3Cl)c(-c3ccc(Cl)cc3)c2n1 [Compound 4, [(2S)-1-[2-(2-chlorophenyl)-3-(4-chlorophenyl)-7-[4-(trifluoromethyl)phenyl]pyrazolo[1,5-a]pyrimidin-5-yl]pyrrolidin-2-yl]methanol]
1.67 nM | 4.73 nM | CCOC1(C(N)=O)CCN(c2cc(OCC(C)(C)O)nc3c(-c4ccc(Cl)cc4)c(-c4ccccc4Cl)nn23)CC1 [Compound 42, 1-[2-(2-chlorophenyl)-3-(4-chlorophenyl)-5-(2-hydroxy-2-methyl-propoxy)pyrazolo[1,5-a]pyrimidin-7-yl]-4-ethoxy-piperidine-4-carboxamide]
0.99 nM | 9.15 nM | CN(CCC(N)=O)c1cc(N2CCC(C)(C(N)=O)CC2)n2nc(-c3ccccc3Cl)c(-c3ccc(Cl)cc3)c2n1 [Compound 22, 1-[5-[(3-amino-3-oxo-propyl)-methyl-amino]-2-(2-chlorophenyl)-3-(4-chlorophenyl)pyrazolo[1,5-a]pyrimidin-7-yl]-4-methyl-piperidine-4-carboxamide]
17.1 nM | 49.8 nM | CC(C)(O)COc1cc(N2CCC[C@@H](C(N)=O)C2)n2nc(-c3ccccc3Cl)c(-c3ccc(Cl)cc3)c2n1 [Compound 17(R), 1-[2-(2-chlorophenyl)-3-(4-chlorophenyl)-5-(2-hydroxy-2-methyl-propoxy)pyrazolo[1,5-a]pyrimidin-7-yl]piperidine-3-carboxamide]
3.9 nM | 14.3 nM | CCOC1(C(N)=O)CCN(c2cc(N(C)CC(C)(C)O)nc3c(-c4ccc(Cl)cc4)c(-c4ccccc4Cl)nn23)CC1 [Compound 44, 1-[2-(2-chlorophenyl)-3-(4-chlorophenyl)-5-[(2-hydroxy-2-methyl-propyl)-methyl-amino]pyrazolo[1,5-a]pyrimidin-7-yl]-4-ethoxy-piperidine-4-carboxamide]
1.25 nM | 3.22 nM | CCOC1(C(N)=O)CCN(c2cc(OCC(C)(C)O)nc3c(-c4ccc(Cl)cc4)c(-c4ccc(C#N)nc4)nn23)CC1 [Compound 55, 1-[3-(4-chlorophenyl)-2-(6-cyano-3-pyridyl)-5-(2-hydroxy-2-methyl-propoxy)pyrazolo[1,5-a]pyrimidin-7-yl]-4-ethoxy-piperidine-4-carboxamide]
